Results on 18 compounds are retold here after patent US7186730B2, “Bicyclic nitrogen-containing heterocyclic derivatives for use as antibacterials” (priority 2001, dated 2007).

The term MIC denotes the lowest concentration found to suppress growth.

Structures can show the parent of a compound that is named as a salt. Some results are limits rather than exact numbers.

A short description of the first assay: MIC of test compounds against various organisms. It counts as cell-based.
Conditions: not given
The method, then:
The MIC (μg/ml) of test compounds against various organisms was determined: S. aureus Oxford, S. aureus WCUH29, S. pneumoniae 1629, S. pneumoniae N1387, S. pneumoniae ERY 2, E. faecalis I, E. faecalis 7,H. influenzaeQ1, H. influenzae NEMC1, M. catarrhalis 1502.
For the compound `COc1ccc2nccc(NC(=O)C3CCN(CC(O)c4cnc5c(c4)NC(=O)CS5)CC3)c2n1` (stereo not drawn) [Example 15, R and S-1-[2-Hydroxy-2-(2-oxo-2,3-dihydro-1H-pyrido[2,3-b][1,4]thiazin-7-yl)-ethyl]-piperidine-4-carboxylic acid (6-methoxy-[1,5]naphthyridin-4-yl)-amide hydrochloride], the MIC was at most 4 µg/mL.
The same measure, in the same setting: the result for `COc1ccc2nccc(NC(=O)C3CCN(CCc4cc5c(cn4)OCCO5)CC3)c2n1` [Example 16, 1-[2-(2,3-Dihydro-[1,4]dioxino[2,3-c]pyridin-7-yl)-ethyl]-piperidine-4-carboxylic acid (6-methoxy-[1,5]naphthyridin-4-yl)-amide hydrochloride] reads at most 4 µg/mL; that for `COc1ccc2nccc(OCC3CCN(CCc4ccc5c(c4)OCCO5)CC3)c2n1` [Example 21, 8-{1-[2-(2,3-Dihydro-benzo[1,4]dioxin-6-yl)-ethyl]-piperidin-4-ylmethoxy}-2-methoxy-[1,5]naphthyridine hydrochloride], at most 64 µg/mL.

The same assay, now with this note: versus all these organisms (10-strain panel); read-out: MIC.
`COc1ccc2nccc(NC(=O)C3CCN(CCc4ccc5c(c4)NC(=O)CS5)CC3)c2n1` [Example 1, 1-[2-(3-Oxo-3,4-dihydro-2H-benzo[1,4]thiazin-6-yl)-ethyl]-piperidine-4-carboxylic acid (6methoxy-[1,5]naphthyridinylaramide oxalate]: the MIC was at most 4 µg/mL.
On the same count and under the same terms, the result for `COc1ccc2nccc(NC(=O)C3CCN(CCc4ccc5c(c4)OCO5)CC3)c2n1` [Example 2, 1-(2-Benzo[1,3]dioxol-5yl-ethyl)-piperidine4-carboxylic acid (6-methoxy-[1,5]naphthyridin-4-yl)amide, dioxalate] reads at most 4 µg/mL; that for `COc1ccc2nccc(NC(=O)C3CCN(CCc4ccc5c(c4)OCCO5)CC3)c2n1` [Example 3, 1-[2-(2,3-Dihydro-benzo[1,4]dioxin-6-yl)-ethyl]-piperidine-4-carboxylic acid (6-methoxy-[1,5]naphthyridin-4-yl)-amide, dioxalate], at most 4 µg/mL.
Still for that read-out and setting: as for `COc1ccc2nccc(NC(=O)C3CCN(CCc4nc5c(F)cccc5[nH]4)CC3)c2n1` [Example 4, 1-[2-(4-Fluoro-1H-benzoimidazol-2-yl)-ethyl]-piperidine-4-carboxylic acid (6-methoxy-[1,5]naphthyridin-4-yl)-amide, dioxalate], the figure is at most 4 µg/mL; as for `COc1ccc2nccc(NC(=O)C3CCN(CCc4ccc5nsnc5c4)CC3)c2n1` [Example 5, 1-(2-Benzo[1,2,5]thiadiazol-5-yl-ethyl)-piperidine-4-carboxylic acid (6-methoxy-[1,5]naphthyridin-4-yl)-amide, dioxalate], at most 64 µg/mL; as for `COc1ccc2nccc(NC(=O)C3CCN(CCc4ccc5c(c4)oc(=O)n5C)CC3)c2n1` [Example 6, 1-[2-(3-Methyl-2-oxo-2,3-dihydro-benzooxazol-6-yl)-ethyl]-piperidine-4-carboxylic acid (6-methoxy-[1,5]naphthyridin-4-yl)-amide, dioxalate], at most 64 µg/mL.
Regarding `COc1ccc2nccc(NC(=O)C3CCN(CCc4ccc5c(c4)NC(=O)CO5)CC3)c2n1` [Example 7, 1-[2-(3-Oxo-3,4-dihydro-2H-benzo-[1,4]oxazin-6-yl)ethyl]-piperidine-4-carboxylic acid (6-methoxy-[1,5]naphthyridin-4-yl)-amide, dioxalate], the MIC is at most 16 µg/mL.
For the compound `COc1ccc2nccc(NC(=O)C3CCN(CCc4cnc5ccccc5n4)CC3)c2n1` [Example 9, 1-(2-Quinoxalin-2-yl-ethyl)piperidine-4-carboxylic acid (6-methoxy-[1,5]naphthyridin-4-yl)-amide], the MIC was at most 64 µg/mL.
The same measure, in the same setting: as for `COc1ccc2nccc(NC(=O)C3CCN(CC(=O)c4ccc5c(c4)NC(=O)CS5)CC3)c2n1` [Example 11, 1-[2-Oxo-2-(3-oxo-3,4dihydro-2H-benzo[1,4]thiazin-6-yl)-ethyl]-piperidine-4-carboxylic acid (6-methoxy-[1,5]naphthyridin-4-yl)-amide oxalate], the figure is at most 64 µg/mL; as for `COc1ccc2nccc(NC(=O)C3CCN(CC(O)c4ccc5c(c4)NC(=O)CS5)CC3)c2n1` (stereo not drawn) [Example 12, R,S-1-[2-Hydroxy-2-(3-oxo-3,4-dihydro-2H-benzo[1,4]thiazin-6-yl)-ethyl]-piperidine-4-carboxylic acid (6methoxy-[1,5]naphthyridin-4-yl)-amide oxalate], at most 4 µg/mL; as for `COc1ccc2nccc(NC(=O)C3CCN(CC(=O)c4ccc5c(c4)NC(=O)CO5)CC3)c2n1.O=C(O)C(=O)O` [Example 13, 1-[2-Oxo-2-(3-oxo-3,4-dihydro-2H-benzo[1,4]oxazin-6-yl)ethyl]-piperidine-4-carboxylic acid (6-methoxy-[1,5]naphthyridin-4-yl)-amide oxalate], at most 4 µg/mL.
The same measure, in the same setting: as for `COc1ccc2nccc(NC(=O)C3CCN(CC(=O)c4ccc5c(c4)OCCO5)CC3)c2n1` [Example 14, 1-[2-(2,3-Dihydro-benzo[1,4]dioxin-6-yl)-2-oxo-ethyl]-piperidine-4-carboxylic acid (6methoxy-[1,5]naphthyridin-4-yl)-amide oxalate], the figure is at most 16 µg/mL; as for `COc1ccc2nccc(OCC3CCN(CC(O)c4ccc5c(c4)NC(=O)CS5)CC3)c2n1` (stereo not drawn) [Example 17, R,S-6-{1-Hydroxy-2-[4-(6methoxy-[1,5]naphthyridin-4-yloxymethyl)-piperidin-1-yl]-ethyl}-4H-benzo[1,4]thiazin-3-one hydrochloride], at most 16 µg/mL.
Same read-out and setting: the result for `COc1ccc2nccc(NC(=O)C3CCN(CC(O)c4ccc5c(c4)OCCO5)CC3)c2n1` (stereo not drawn) [Example 18, R,S-1-[2-(2,3-Dihydro-benzo[1,4]dioxin-6-yl)-2-hydroxy-ethyl]-piperidine-4-carboxylic acid (6-methoxy-[1,5]naphthyridin-4-yl)-amide oxalate] reads at most 4 µg/mL.
In the case of `COc1ccc2nccc(NC(=O)C3CCN(CC(O)c4ccc5c(c4)NC(=O)CO5)CC3)c2n1` (stereo not drawn) [Example 19, R,S-1-[2-Hydroxy-2-(3-oxo-3,4-dihydro-2H-benzo[1,4]oxazin-6-yl)-ethyl]-piperidine-4-carboxylic acid (6-methoxy-[1,5]naphthyridin-4-yl)-amide oxalate], the minimal inhibitory concentration (MIC) is at most 16 µg/mL.
